According to BigSolDB 2.1:

CC1(C)[C@H](C(=O)O)N2C(=O)[C@@H](NC(=O)Cc3ccccc3)[C@H]2S1=O (stereo partly drawn)
Settings	solubility (mole fraction)
in MIBK, 278.15 K	0.00173
in MIBK, 287.85 K	0.00184
in MIBK, 295.15 K	0.00201
in MIBK, 297.95 K	0.00213
in MIBK, 303.35 K	0.00227
in MIBK, 308.05 K	0.00238
in MIBK, 313.35 K	0.00262
in MIBK, 317.65 K	0.00278
in MIBK, 323.75 K	0.00316
in ethyl acetate, 273.15 K	0.00211
in ethyl acetate, 278.15 K	0.00222
in ethyl acetate, 283.25 K	0.00227
in ethyl acetate, 288.15 K	0.00233
in ethyl acetate, 292.75 K	0.00256
in ethyl acetate, 298.55 K	0.0028
in ethyl acetate, 303.15 K	0.00316
in ethyl acetate, 307.45 K	0.00338
in ethyl acetate, 312.85 K	0.00383
in ethyl acetate, 317.65 K	0.0044
in ethyl acetate, 321.25 K	0.00486
in n-butyl acetate, 273.15 K	0.000603
in n-butyl acetate, 278.25 K	0.000678
in n-butyl acetate, 281.95 K	0.000735
in n-butyl acetate, 287.65 K	0.000825
in n-butyl acetate, 292.55 K	0.000979
in n-butyl acetate, 297.35 K	0.0011
in n-butyl acetate, 302.95 K	0.00134
in n-butyl acetate, 307.65 K	0.00151
in n-butyl acetate, 312.65 K	0.00166
in n-butyl acetate, 317.65 K	0.00192
in toluene, 283.15 K	2.74e-05
in toluene, 288.35 K	3.68e-05
in toluene, 293.95 K	5.26e-05
in toluene, 298.15 K	6.12e-05
in toluene, 303.45 K	6.97e-05
in toluene, 311.65 K	8.7e-05
in toluene, 316.85 K	0.000105
in toluene, 323.65 K	0.000113
